From patent publication US8293258B2, “Pesticide treatments made from hop extracts” (John I. Hass, Inc., priority 2000, dated 2012) come the findings set out here.

For data set [1], the system named is Erysiphe (=Uncinula) necator. The data set is described as follows: Grapevine powdery mildew control test (experimental vineyard). Format: in vivo. To be noted: standard control fungicide, concentration not given; percent of grape clusters that showed disease. The protocol:
The grapevine powdery mildew organism is the fungus Erysiphe (=Uncinula) necator and the host plant is wine grape plant Vitis vinifera. Tests were conducted in an experimental vineyard near Pasco, Wash. Treatments were applied using an airblast sprayer at a volume of 100 gallons per acre. Disease inoculum was natural and had been the heaviest it has been in at least seven years. Plot size was five grape plants. Treatments were replicated four times and evaluations were made on September 4th. […] Percent severity is the portion of each grape cluster that was covered with symptoms.

In data set [2] the test system is predator mites Galendromus occidentalis and Neoseiulus fallacis. To be noted: in vivo.
Text: Final concentrations of each component of the tank mix are: one-half percent liquid soap, one percent crop oil and one percent beta acids.
This mixture was applied to hop plants using a Windmill 400 gallon airblast sprayer. The mixture was applied to a one-acre test plot at the rate of 20 gallons per acre and to another one-acre plot at the rate of 100 gallons per acre. A total of five applications were made during the growing season. The first was made June 9th and the final on August 1st. Counts of live spider mites were made periodically during the season to monitor the effect of the product on the number of live mites. Simultaneously, the beneficial predator mites Galendromus occidentalis and Neoseiulus fallacis were counted to determine the effect of the product on these predator mites since these predator mites are useful in helping to reduce the numbers of twospotted spider mites.

With `OC(c1ccc(Cl)cc1)(c1cncnc1)c1ccccc1Cl` (stereo not drawn) [Standard Control, Fenarimol], the “Percent Incidence” value in data set [1] was 71%.

For the compound Beta Acids, in data set [2], the predator numbers entry is on record as “quite high” and the “predator numbers, highest reached” value is listed as at most 12 per leaf.
